# Results published in patent US20050203124A1, “Compounds for the sustained reduction of body weight” (Boehringer Ingelheim International GmbH, priority 2004, published 2005).
# Test: Clinical studies: monitoring of body weight (vital sign) under multiple ascending doses
# Type: in vivo, patients
# Description: Clinical Studies have been carried out in order to compare the maintenance doses of the compounds of formula IA, including its metabolite IB, that were used in 3 studies.
# The studies were randomized, double-blind, placebo-controlled per ascending dose group. The studies were designed to assess the safety, tolerability, phamacokinetics (PK), and preliminary efficacy of multiple ascending doses of the compound of formula IA in patients with possible Alzheimer's Disease (AD).
# Two studies were performed consecutively with 0.125/0.25 and 0.5/1.0 mg of the compound of formula IA daily every morning to assess the safety and preliminary efficacy of multiple given for 28 days in those patients. After the completion of the first two studies a […] was initiated in elderly volunteers in order to investigate the safety and PK of a median dose of 0.75 mg of the compound of formula IA daily in the morning than were used in the first two studies. Depending on the maintenance dose an at least double loading dose was administrated for up to 6 days.
# To determine the safety, tolerability of ascending multiple doses of the compound of formula IA (5 dose levels) given for 28 days, and to determine the preliminary multiple dose (4-week) pharmacokinetics (PK) of the compound of formula IA. […]
compound,measurement,setting,value
CCOC[C@H]1C2CCC(C[C@@H]1c1ccc(Cl)c(Cl)c1)N2C (some centres unmarked) [Compound of formula IA],"body weight under treatment (change in weight, FIGS. 3 and 4)","patients with possible Alzheimer's Disease / elderly volunteers, aged 55 to 80, 0.125 to 1.0 mg daily for 28 days, placebo-controlled",clearly reduces the bodyweight
same,"body weight after the treatment has been stopped (change in weight, FIGS. 5 and 6)","same studies, follow-up 56 to 70 days after beginning of the 28-day treatment",still further reduced
